Structures are written as SMILES.

The term IC50 denotes the concentration needed to halve the response being measured. A lower IC50 goes with inhibition by little substance.

For this assay, the system named is DOHH2 cells. Briefly: Cell proliferation assay (MTS) in DOHH2 cells, mechanism-based assay for BTK inhibition. Particulars: Homo sapiens, DOHH-2, 120 h incubation, 5000 cells/well. The text has this: Cell Proliferation Assays
MTS testing kit was purchased from Promega. The DMEM, Fetal bovine serum and Penicillin-Streptomycin were purchased from Gibco. Dimethyl sulfoxide (DMSO) was purchased from Sigma.
To investigate whether a compound is able to inhibit the activity of BTK in cells, a mechanism-based assay using DOHH2 (DSMZ catalog#: ACC47) and Mino (ATCC® Number CRL-3000™) cells was developed. In this assay, inhibition of BTK was detected by the inhibition of DOHH2 and Mino cell proliferations. DOHH2 or Mino cells were cultured in culture flasks to 40-80% confluence in RPMI-1640 plus 10% fetal bovine serum. C ells were collected and plated onto 96-well plates at desired cell density (DOHH2: 5000 cells/well; Mino: 10000 cells/well). Plates were incubated overnight at 37° C., with 5% CO2 to adhere. Compounds were added to the plates, and the final compound concentrations were 10000, 3333, 1111, […], 41, 14, 4.6 and 1.5 nM. Plates were placed at 37° C., with 5% CO2 for 120 h (DOHH2) or 72 h (Mino). 20 μl MTS/100 μl medium mixture solution were added to each well and the plates were incubated for exactly 2 hours. The reaction was stopped by adding 25 μl 10% SDS per well.
Select compounds prepared as described above were assayed according to the biological procedures described herein.
In the case of `C=CC(=O)N1CC[C@H](c2cn(-c3ccc(Oc4c(F)cccc4F)cc3)c3c(N)n[nH]c(=O)c23)C1` [Example 27, (R)-3-(1-acryloylpyrrolidin-3-yl)-7-amino-1-(4-(2,6-difluorophenoxy)phenyl)-1,5-dihydro-4H-pyrrolo[2,3-d]pyridazin-4-one], the IC50 was 47 nM.

With `C=CC(=O)N1CCC[C@@H](c2cn(-c3ccc(Oc4ccccc4F)cc3)c3c(N)n[nH]c(=O)c23)C1` [Example 29, (S)-3-(1-acryloylpiperidin-3-yl)-7-amino-1-(4-(2-fluorophenoxy)phenyl)-1,5-dihydro-4H-pyrrolo [2,3-d]pyridazin-4-one], it took 46 nM to reach half-maximal inhibition (IC50).

Consider `C=CC(=O)N1CCC[C@@H](c2cn(-c3ccc(Oc4cccc(F)c4)cc3)c3c(N)n[nH]c(=O)c23)C1` [Example 30, (S)-3-(1-acryloylpiperidin-3-yl)-7-amino-1-(4-(3-fluorophenoxy)phenyl)-1,5-dihydro-4H-pyrrolo [2,3-d]pyridazin-4-one], for which 129 nM corresponded to half-maximal inhibition (IC50).

With `C=CC(=O)N1CCC[C@@H](c2cn(-c3ccc(Oc4ccc(F)cc4)cc3)c3c(N)n[nH]c(=O)c23)C1` [Example 31, (S)-3-(1-acryloylpiperidin-3-yl)-7-amino-1-(4-(4-fluorophenoxy)phenyl)-1,5-dihydro-4H-pyrrolo [2,3-d]pyridazin-4-one], the IC50 is 167 nM. The IC50 values of the last two compounds are within 1.5-fold of each other.

With `C=CC(=O)N1CCC[C@@H](c2cn(-c3ccc(Oc4cccc(F)c4F)cc3)c3c(N)n[nH]c(=O)c23)C1` [Example 32, (S)-3-(1-acryloylpiperidin-3-yl)-7-amino-1-(4-(2,3-difluorophenoxy)phenyl)-1,5-dihydro-4H-pyrrolo[2,3-d]pyridazin-4-one], it took 58 nM to reach half-maximal inhibition (IC50).

For `C=CC(=O)N1CCC[C@@H](c2cn(-c3ccc(Oc4c(F)cccc4F)cc3)c3c(N)n[nH]c(=O)c23)C1` [Example 33, (S)-3-(1-acryloylpiperidin-3-yl)-7-amino-1-(4-(2,6-difluorophenoxy)phenyl)-1,5-dihydro-4H-pyrrolo[2,3-d]pyridazin-4-one], inhibition was half-maximal at 221 nM (IC50).

The compound `C=CC(=O)N1CCC[C@@H](c2cn(-c3ccc(Oc4cc(F)cc(F)c4)cc3)c3c(N)n[nH]c(=O)c23)C1` [Example 34, (S)-3-(1-acryloylpiperidin-3-yl)-7-amino-1-(4-(3,5-difluorophenoxy)phenyl)-1,5-dihydro-4H-pyrrolo[2,3-d]pyridazin-4-one] yielded an IC50 of 42 nM. Against the preceding compound, the IC50 is about 5.3-fold lower.

For `C=CC(=O)N1CCC[C@H](c2cn(-c3ccc(Oc4ccccc4F)cc3)c3c(N)n[nH]c(=O)c23)C1` [Example 35, (R)-3-(1-acryloylpiperidin-3-yl)-7-amino-1-(4-(2-fluorophenoxy)phenyl)-1,5-dihydro-4H-pyrrolo [2,3-d]pyridazin-4-one], the IC50 amounted to 33 nM. The IC50 values of the last two compounds are within 1.5-fold of each other.

The compound `C=CC(=O)N1CCC[C@H](c2cn(-c3ccc(Oc4cccc(F)c4)cc3)c3c(N)n[nH]c(=O)c23)C1` [Example 36, (R)-3-(1-acryloylpiperidin-3-yl)-7-amino-1-(4-(3-fluorophenoxy)phenyl)-1,5-dihydro-4H-pyrrolo [2,3-d]pyridazin-4-one] returned an IC50 of 585 nM.

Compound `C=CC(=O)N1CCC[C@H](c2cn(-c3ccc(Oc4cccc(F)c4F)cc3)c3c(N)n[nH]c(=O)c23)C1` [Example 38, (R)-3-(1-acryloylpiperidin-3-yl)-7-amino-1-(4-(2,3-difluorophenoxy)phenyl)-1,5-dihydro-4H-pyrrolo[2,3-d]pyridazin-4-one] came in with an IC50 of 175 nM.

Consider `C=CC(=O)N1CCC[C@H](c2cn(-c3ccc(Oc4c(F)cccc4F)cc3)c3c(N)n[nH]c(=O)c23)C1` [Example 39, (R)-3-(1-acryloylpiperidin-3-yl)-7-amino-1-(4-(2,6-difluorophenoxy)phenyl)-1,5-dihydro-4H-pyrrolo[2,3-d]pyridazin-4-one], for which the IC50 is 31 nM.

`C=CC(=O)N1CCC[C@H](c2cn(-c3ccc(Oc4cc(F)cc(F)c4)cc3)c3c(N)n[nH]c(=O)c23)C1` [Example 40, (R)-3-(1-acryloylpiperidin-3-yl)-7-amino-1-(4-(3,5-difluorophenoxy)phenyl)-1,5-dihydro-4H-pyrrolo[2,3-d]pyridazin-4-one] yielded an IC50 of 375 nM.

These data come from US10800785B2, “Substituted pyrrolo[2,3-d]pyridazin-4-ones and pyrazolo[3,4-d]pyridazin-4-ones as protein kinase inhibitors” (Shanghai Fochon Pharmaceutical Co., Ltd., priority 2016, dated 2020).
